Source: patent publication EP1565179B1, “COMPOSITION COMPRISING A CARBAMIC ACID DERIVATIVE, ITS USE AS COSMETIC AND MEDICINE” (Laboratoires Expanscience, priority 2002, dated 2004)

What was measured:
[1] = test system: cellules dendritiques générées in vitro à partir de précurseurs CD34+ issus de sang de cordon; assay: Migration of hapten BB-sensitised in vitro generated dendritic/Langerhans cells through Matrigel in a two-compartment culture chamber; assay type: cell-based
Procedure: Des cellules mononuclées ont été obtenues à partir de sang de cordon ombilical de donneurs sains, par centrifugation sur Ficoll. Les cellules CD34+ ont ensuite été purifiées par immunosélection à l'aide d'anticorps spécifique et de billes magnétiques (Miltenyi Biotech, Allemagne). Les cellules CD34+ ont été cultivées en présence de GM-CSF (100 ng/ml), TNF-α (2,5 ng/ml) en RPMI additionné de 10% sérum de veau foetal, pendant 5 jours. L'addition de TGF-β1, facteur qui favorise la différenciation des cellules vers la voie cellules de Langerhans, a été réalisée au cinquième jour de culture.
Le milieu de base choisi pour l'ensemble de l'étude a été le RPMI 1640 (Gibco BRL, France). Le composé A fourni par EXPANSCIENCE, à la concentration de 10^-2 M en solution dans du DMSO (Diméthyl Sulfoxide), a été dilué en RPMI-1640 et testé à 1 µM.
Les cellules ont été traitées, au septième jour, par l'haptène BB (Base de Brandowski, 1,17 µg/ml), pendant 24 h, puis soumises au test de migration.
Un système de chambre de culture à deux compartiments (Falcon, Becton Dickinson, France) a été utilisé. Le compartiment supérieur est séparé du compartiment inférieur par une membrane de porosité 8 µm, sur laquelle sont déposées 50 µg/cm^2 de Matrigel. […]

[2] = test system: cellules de Langerhans (CL) et cellules dendritiques (CD); assay: Migration of skin dendritic cells (FITC+) to draining lymph nodes in mice after topical FITC hapten application; assay type: in vivo, souris; settings: 0,5% topical formulation on mouse ears twice daily for 4 days; 1,5% FITC; lymph nodes analysed 24 h later
Description: Le FITC (Fluorescéine isothiocyanate, Sigma, St. Louis, MO) a été dilué extemporanément dans un mélange acétone: dibutylphthalate (1:1).
L'acide carbamique A (acide 1-Hydroxyméthyl-tridécyl carbamique) et le LU105 (LU 105 est un inhibiteur de MMPs, correspondant à un extrait peptidique de lupin blanc commercialisé par la Société Expanscience sous le nom de marque Actimp 193®) ont été fournis par les "Laboratoires Expanscience", et formulés seuls ou en association dans un véhicule inerte compatible avec une application topique tel que décrit à l'exemple 1 ci-dessus [Acide carbamique A (0,5%) ± LU105 (2%)]. Les différentes formulations ont été appliquées sur les oreilles de souris deux fois par jour pendant 4 jours consécutifs. Trois heures après la dernière application, 1,5% de FITC sont appliqués sur les deux oreilles (l'une traitée et l'autre non traitée (Contrôle)).
L'effet des deux molécules a été évalué in vivo chez la souris. La peau des deux oreilles est badigeonnée avec 1,5% FITC (2X5 µl). 24 h après, les souris sont sacrifiées et une suspension cellulaire est préparée à partir des ganglions auriculaires et cervicaux (ganglions drainants, ci-après dénommés GL) ou à partir des ganglions popliteaux (ganglions non drainants, contrôle négatif). Les tissus ont été découpés et les cellules sont séparées par filtration (filtre […], Falcon; Becton Dickinson), puis lavés. […]

SMILES: CCCCCCCCCCCCC(CO)NC(=O)O (stereo not drawn) [Composé A, (1-Hydroxyméthyl-tridécyl)-acide carbamique]
- Pourcentage de cellules dendritiques générées in vitro ayant migré ([1]; 1 µM, cells sensitised with hapten BB (1,17 µg/ml, 24 h), 18 h incubation at 37°C, BB-only control 20): 15%
- inhibition at 1 µM ([1]; read-out: inhibition de la migration des cellules dendritiques générées in vitro et activées par l'haptène BB): 25%
- Inhibition de la migration en % [2]: 25%
